Laboratory results: ChEMBL document CHEMBL1649337, “Triterpenoidal alkaloids from Buxus natalensis and their acetylcholinesterase inhibitory activity” (J Nat Prod, 2010)

Target: Acetylcholinesterase (Homo sapiens, UniProt P22303)
Experiment: Inhibition of AChE by Ellman's method
Conditions: not given; call rule not given here

Acetylcholinesterase, sequence (P22303 whole entry): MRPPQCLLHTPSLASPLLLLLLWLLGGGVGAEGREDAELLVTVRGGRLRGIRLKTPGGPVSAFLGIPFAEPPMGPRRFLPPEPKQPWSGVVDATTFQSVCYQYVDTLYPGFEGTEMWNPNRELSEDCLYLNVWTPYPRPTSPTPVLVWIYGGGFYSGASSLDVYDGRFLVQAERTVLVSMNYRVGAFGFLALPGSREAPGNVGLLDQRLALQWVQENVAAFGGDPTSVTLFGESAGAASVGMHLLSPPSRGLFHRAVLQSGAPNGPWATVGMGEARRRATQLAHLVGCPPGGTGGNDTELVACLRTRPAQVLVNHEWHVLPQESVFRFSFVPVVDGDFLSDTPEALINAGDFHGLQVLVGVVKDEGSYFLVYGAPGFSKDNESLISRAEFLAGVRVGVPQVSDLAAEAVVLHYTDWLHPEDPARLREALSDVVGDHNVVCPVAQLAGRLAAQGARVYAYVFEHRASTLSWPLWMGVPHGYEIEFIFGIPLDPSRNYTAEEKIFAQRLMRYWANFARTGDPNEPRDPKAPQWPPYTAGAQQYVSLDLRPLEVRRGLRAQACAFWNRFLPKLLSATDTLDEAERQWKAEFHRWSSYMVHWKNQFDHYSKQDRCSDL

In the case of `NCCCCNC(=O)/C=C/c1ccc(O)cc1` [P-COUMAROYLPUTRESCINE], the IC50 is reported as “Not Active”.

Same assay, conditions: read-out: IC50

First: CC(=O)O[C@@H]1C[C@@]2(C)[C@@H]3C[C@H]4OC[C@@]5(C)[C@@H](NC(=O)c6ccccc6)C=C[C@@](O)(CC3=CC[C@]2(C)[C@H]1[C@H](C)N(C)C)[C@@H]45 [BUXAFURANAMIDE]
Second: CC(=O)O[C@@H]1C[C@@]2(C)[C@@H]3CC[C@H]4[C@](C)(CO)[C@@H](NC(=O)c5ccccc5)C=C[C@]4(O)CC3=CC[C@]2(C)[C@H]1[C@H](C)N(C)C [BUXALONGIFOLAMIDINE]
The IC50 of the first is 2.2-fold lower: 14 µM for the first, 30.2 µM for the second.

`CN[C@H]1CCC2=CC3=CC[C@]4(C)[C@@H]([C@H](C)N(C)C)[C@H](O)C[C@@]4(C)[C@@H]3CC[C@H]2C1(C)C` [BUXAMINOL C] and `C[C@@H]([C@H]1[C@H](O)C[C@@]2(C)[C@@H]3CC[C@@H]4C(=CC3=CC[C@]12C)CC[C@H](N(C)C)C4(C)C)N(C)C` [BUXAMINOL A] are within 1.5-fold of each other in IC50: 40 µM for the first, 29.8 µM for the second.

`C/C=C1/C(=O)C[C@@]2(C)[C@@H]3CC[C@H]4C(C)(C)[C@@H](N(C)C)CC[C@@]45C[C@@]35CC[C@]12C` [CYCLOBUXOPHYLLINE K] and `C[C@@H]([C@H]1CC[C@@]2(C)[C@@H]3CC[C@@H]4C(=CC3=CC[C@]12C)CC[C@H](N(C)C)C4(C)C)N(C)C` [BUXAMINE A] are within 1.5-fold of each other in IC50: 58.2 µM for the first, 80 µM for the second.

`C[C@@H]([C@H]1[C@H](O)C[C@@]2(C)[C@@H]3C=C[C@H]4C(C)(C)[C@@H](N(C)C)[C@H](O)C[C@@]45C[C@@]35CC[C@]12C)N(C)C` [CYCLONATAMINOL] and `C[C@@H]1[C@@H]2CC[C@@H]3C(=CC[C@]4(C)[C@@H]([C@H](C)N(C)C)[C@H](O)C[C@@]34C)C=C2CC[C@@H]1N(C)C` [31-DEMETHYLBUXAMINOL] are within 1.5-fold of each other in IC50: 22.9 µM for the first, 25.8 µM for the second.

Compared with `C[C@@H]([C@H]1[C@H](O)C[C@@]2(C)[C@@H]3C[C@H](O)[C@H]4[C@]5(C)CO[C@]4(C=C[C@@H]5NC(=O)c4ccccc4)CC3=CC[C@]12C)N(C)C`, `CC(=O)O[C@H]1C[C@@H]2C(=CC[C@]3(C)[C@@H]([C@H](C)N(C)C)[C@H](O)C[C@@]23C)C[C@@]23O[C@@H]2[C@H]2OC[C@](C)([C@H]2NC(=O)c2ccccc2)[C@H]13` is 2.8-fold lower in IC50: 8.5 µM for the first, 3 µM for the second.
